According to ChEMBL document CHEMBL4138123, “Design, synthesis and biological evaluation of novel pyrazolochalcones as potential modulators of PI3K/Akt/mTOR pathway and inducers of apoptosis in breast cancer cells” (Eur J Med Chem, 2017):

Experiments:
Assay type in all cases: functional
U-251 = assay: Cytotoxicity against human U251 cells assessed as growth inhibition after 48 hrs by sulforhodamine B assay; conditions: U-251, 48 h
SK-OV-3 [1] = assay: Cytotoxicity against human SKOV3 cells assessed as cell growth at 0.1 uM after 48 hrs by sulforhodamine B assay relative to control; conditions: SK-OV-3, 48 h, read-out: Activity
SF-268 = assay: Cytotoxicity against human SF268 cells assessed as growth inhibition after 48 hrs by sulforhodamine B assay; conditions: SF-268, 48 h; for CC50: read-out: LC50 (the source's name)
OVCAR-5 = assay: Cytotoxicity against human OVCAR5 cells assessed as growth inhibition after 48 hrs by sulforhodamine B assay; conditions: OVCAR-5, 48 h
NCI-H522 = assay: Cytotoxicity against human NCI-H522 cells assessed as cell growth at 10 uM after 48 hrs by sulforhodamine B assay relative to control; conditions: NCI-H522, 48 h, read-out: Activity
HT-29 [2] = assay: Cytotoxicity against human HT-29 cells assessed as cell growth at 0.01 uM after 48 hrs by sulforhodamine B assay relative to control; conditions: HT-29, 48 h, read-out: Activity
NCI/ADR-RES = assay: Cytotoxicity against human NCI/ADR-RES cells assessed as growth inhibition after 48 hrs by sulforhodamine B assay
PC-3 = assay: Cytotoxicity against human PC3 cells assessed as growth inhibition after 48 hrs by sulforhodamine B assay; conditions: PC-3, 48 h
MDA-MB-231 = assay: Cytotoxicity against human MDA-MB-231 cells assessed as cell growth at 0.1 uM after 48 hrs by sulforhodamine B assay relative to control; conditions: MDA-MB-231, 48 h, read-out: Activity
SNB-19 = assay: Cytotoxicity against human SNB19 cells assessed as cell growth at 0.01 uM after 48 hrs by sulforhodamine B assay relative to control; conditions: SNB-19, 48 h, read-out: Activity
RXF 393 [3] = assay: Cytotoxicity against human RXF393 cells assessed as cell growth at 0.01 uM after 48 hrs by sulforhodamine B assay relative to control; conditions: RXF 393, 48 h, read-out: Activity
BT-549 = assay: Cytotoxicity against human BT549 cells assessed as growth inhibition after 48 hrs by sulforhodamine B assay; conditions: BT-549, 48 h
HT-29 [4] = assay: Cytotoxicity against human HT-29 cells assessed as cell growth at 1 uM after 48 hrs by sulforhodamine B assay relative to control; conditions: HT-29, 48 h, read-out: Activity
CCRF-CEM [5] = assay: Cytotoxicity against human CCRF-CEM cells assessed as cell growth at 0.01 uM after 48 hrs by sulforhodamine B assay relative to control; conditions: read-out: Activity
SK-OV-3 [6] = assay: Cytotoxicity against human SKOV3 cells assessed as cell growth at 10 uM after 48 hrs by sulforhodamine B assay relative to control; conditions: SK-OV-3, 48 h, read-out: Activity
NCI-H226 [7] = assay: Cytotoxicity against human NCI-H226 cells assessed as cell growth at 0.01 uM after 48 hrs by sulforhodamine B assay relative to control; conditions: NCI-H226, 48 h, read-out: Activity
CCRF-CEM [8] = assay: Cytotoxicity against human CCRF-CEM cells assessed as cell growth at 0.1 uM after 48 hrs by sulforhodamine B assay relative to control; conditions: read-out: Activity
UACC-257 [9] = assay: Cytotoxicity against human UACC257 cells assessed as cell growth at 1 uM after 48 hrs by sulforhodamine B assay relative to control; conditions: UACC-257, 48 h, read-out: Activity
RXF 393 [10] = assay: Cytotoxicity against human RXF393 cells assessed as cell growth at 1 uM after 48 hrs by sulforhodamine B assay relative to control; conditions: RXF 393, 48 h, read-out: Activity
UACC-257 [11] = assay: Cytotoxicity against human UACC257 cells assessed as cell growth at 0.1 uM after 48 hrs by sulforhodamine B assay relative to control; conditions: UACC-257, 48 h, read-out: Activity
RPMI-8226 = assay: Cytotoxicity against human RPMI8226 cells assessed as cell growth at 10 uM after 48 hrs by sulforhodamine B assay relative to control; conditions: RPMI-8226, 48 h, read-out: Activity
KM12 [12] = assay: Cytotoxicity against human KM12 cells assessed as cell growth at 1 uM after 48 hrs by sulforhodamine B assay relative to control; conditions: KM12, 48 h, read-out: Activity
HT-29 [13] = assay: Cytotoxicity against human HT-29 cells assessed as growth inhibition after 48 hrs by sulforhodamine B assay; conditions: HT-29, 48 h
Hs-578T = assay: Cytotoxicity against human Hs 578T cells assessed as growth inhibition after 48 hrs by sulforhodamine B assay
NCI-H226 [14] = assay: Cytotoxicity against human NCI-H226 cells assessed as growth inhibition after 48 hrs by sulforhodamine B assay; conditions: NCI-H226, 48 h
786-0 = assay: Cytotoxicity against human 786-0 cells assessed as cell growth at 1 uM after 48 hrs by sulforhodamine B assay relative to control; conditions: 786-0, 48 h, read-out: Activity
MDA-MB-435 = assay: Cytotoxicity against human MDA-MB-435 cells assessed as cell growth at 100 uM after 48 hrs by sulforhodamine B assay relative to control; conditions: MDA-MB-435, 48 h, read-out: Activity
OVCAR-8 = assay: Cytotoxicity against human OVCAR8 cells assessed as cell growth at 0.1 uM after 48 hrs by sulforhodamine B assay relative to control; conditions: OVCAR-8, 48 h, read-out: Activity
RXF 393 [15] = assay: Cytotoxicity against human RXF393 cells assessed as cell growth at 100 uM after 48 hrs by sulforhodamine B assay relative to control; conditions: RXF 393, 48 h, read-out: Activity
HT-29 [16] = assay: Cytotoxicity against human HT-29 cells assessed as cell growth at 10 uM after 48 hrs by sulforhodamine B assay relative to control; conditions: HT-29, 48 h, read-out: Activity
K562 = assay: Cytotoxicity against human K562 cells assessed as cell growth at 0.1 uM after 48 hrs by sulforhodamine B assay relative to control; conditions: K562, 48 h, read-out: Activity
KM12 [17] = assay: Cytotoxicity against human KM12 cells assessed as cell growth at 10 uM after 48 hrs by sulforhodamine B assay relative to control; conditions: KM12, 48 h, read-out: Activity
HCT-116 = assay: Cytotoxicity against human HCT116 cells assessed as cell growth at 10 uM after 48 hrs by sulforhodamine B assay relative to control; conditions: HCT-116, 48 h, read-out: Activity
A498 = assay: Cytotoxicity against human A498 cells assessed as cell growth at 100 uM after 48 hrs by sulforhodamine B assay relative to control; conditions: A498, 48 h, read-out: Activity
UACC-62 = assay: Cytotoxicity against human UACC62 cells assessed as cell growth at 1 uM after 48 hrs by sulforhodamine B assay relative to control; conditions: UACC-62, 48 h, read-out: Activity
KM12 [18] = assay: Cytotoxicity against human KM12 cells assessed as growth inhibition after 48 hrs by sulforhodamine B assay; conditions: KM12, 48 h

Work on `COc1cc(-c2cc(/C=C/C(=O)c3ccc4c(c3)OCO4)[nH]n2)cc(OC)c1OC` yielded an LC50 (U-251) of 59.5 µM, a TGI (U-251) of 5.45 µM and a growth at 0.1 µM (SK-OV-3 [1]) of 103%. It also gave a TGI (SF-268) of 14.5 µM, a CC50 (SF-268) of over 100 µM and an LC50 (OVCAR-5) of over 100 µM. The TGI (OVCAR-5) was 93.5 µM, the growth at 10 µM (NCI-H522) was -88% and the growth at 0.01 µM (HT-29 [2]) was 99%. The LC50 (NCI/ADR-RES) was over 100 µM, the TGI (NCI/ADR-RES) was over 100 µM and the LC50 (PC-3) was over 100 µM. For the same compound, the TGI (PC-3) was 13.7 µM, the growth at 0.1 µM (MDA-MB-231) was 103% and the growth at 0.01 µM (SNB-19) was 94%. The growth at 0.01 µM (RXF 393 [3]) was 95%, the LC50 (concentration killing 50% of cells) (BT-549) was over 100 µM and the growth at 1 µM (HT-29 [4]) was 103%. For the same compound, the growth at 0.01 µM (CCRF-CEM [5]) was 94%, the growth at 10 µM (SK-OV-3 [6]) was 33% and the growth at 0.01 µM (NCI-H226 [7]) was 97%. The growth at 0.1 µM (CCRF-CEM [8]) was 90%, the growth at 1 µM (UACC-257 [9]) was 81% and the growth at 1 µM (RXF 393 [10]) was 80%. For the same compound, the growth at 0.1 µM (UACC-257 [11]) was 91%, the growth at 10 µM (RPMI-8226) was -41% and the growth at 1 µM (KM12 [12]) was 89%. For the same compound, the LC50 (HT-29 [13]) was 9.48 µM, the TGI (HT-29 [13]) was 4.55 µM and the LC50 (Hs-578T) was over 100 µM. It also gave a TGI (Hs-578T) of 78.7 µM, an LC50 (concentration killing 50% of cells) (NCI-H226 [14]) of over 100 µM and a TGI (NCI-H226 [14]) of over 100 µM. For the same compound, the growth at 1 µM (786-0) was 96%, the growth at 100 µM (MDA-MB-435) was 4% and the growth at 0.1 µM (OVCAR-8) was 99%. For the same compound, the growth at 100 µM (RXF 393 [15]) was -89%, the growth at 10 µM (HT-29 [16]) was -54% and the growth at 0.1 µM (K562) was 102%. The growth at 10 µM (KM12 [17]) was -69%, the growth at 10 µM (HCT-116) was -60% and the growth at 100 µM (A498) was -38%. For the same compound, the growth at 1 µM (UACC-62) was 99%.

Compound `COc1ccc(C(=O)/C=C/c2cc(-c3cc(OC)c(OC)c(OC)c3)n[nH]2)cc1` has a TGI (U-251) of 2.83 µM, a growth at 0.1 µM (SK-OV-3 [1]) of 99% and an LC50 (KM12 [18]) of 6.02 µM. It also gave a TGI (KM12 [18]) of 3.06 µM, a TGI (SF-268) of 5.12 µM and a CC50 (SF-268) of over 100 µM. For the same compound, the LC50 (OVCAR-5) was 7.6 µM, the TGI (OVCAR-5) was 3.78 µM and the growth at 10 µM (NCI-H522) was -73%. It also gave a growth at 0.01 µM (HT-29 [2]) of 102%, an LC50 (NCI/ADR-RES) of over 100 µM and a TGI (NCI/ADR-RES) of 9.85 µM. It also gave a growth at 0.1 µM (MDA-MB-231) of 94%, a growth at 0.01 µM (SNB-19) of 97% and a growth at 0.01 µM (RXF 393 [3]) of 93%. The TGI (BT-549) was 3.86 µM, the growth at 1 µM (HT-29 [4]) was 95% and the growth at 0.01 µM (CCRF-CEM [5]) was 99%. The growth at 10 µM (SK-OV-3 [6]) was 18%, the growth at 0.01 µM (NCI-H226 [7]) was 99% and the growth at 0.1 µM (CCRF-CEM [8]) was 98%. For the same compound, the growth at 1 µM (UACC-257 [9]) was 87%, the growth at 1 µM (RXF 393 [10]) was 67% and the growth at 0.1 µM (UACC-257 [11]) was 97%. It also gave a growth at 10 µM (RPMI-8226) of -41%, a growth at 1 µM (KM12 [12]) of 83% and a TGI (HT-29 [13]) of 4.19 µM. For the same compound, the LC50 (Hs-578T) was over 100 µM, the TGI (Hs-578T) was over 100 µM and the TGI (NCI-H226 [14]) was 4.07 µM. It also gave a growth at 1 µM (786-0) of 94%, a growth at 100 µM (MDA-MB-435) of -44% and a growth at 0.1 µM (OVCAR-8) of 98%. It also gave a growth at 100 µM (RXF 393 [15]) of -93%, a growth at 10 µM (HT-29 [16]) of -58% and a growth at 0.1 µM (K562) of 102%. The growth at 10 µM (KM12 [17]) was -88%, the growth at 10 µM (HCT-116) was -22% and the growth at 100 µM (A498) was -34%. For the same compound, the growth at 1 µM (UACC-62) was 95%.

Work on `COc1ccc(-c2cc(/C=C/C(=O)c3ccc4c(c3)OCO4)[nH]n2)cc1OC` yielded a GI50 (U-251) of 1.2 µM, a GI50 (KM12 [18]) of 0.62 µM and a GI50 (SF-268) of 2.09 µM. It also gave a GI50 (OVCAR-5) of 1.76 µM, a GI50 (NCI/ADR-RES) of 3.43 µM and a GI50 (PC-3) of 1.98 µM. The GI50 (BT-549) was 1.44 µM, the GI50 (HT-29 [13]) was 1.38 µM and the GI50 (Hs-578T) was 3.76 µM. For the same compound, the GI50 (NCI-H226 [14]) was 1.66 µM.
